Measurements from US20120142646A1, “Novel Compounds 621” (priority 2006, published 2012).

Biological target: T1, recombinant human α1D receptor (Homo sapiens, UniProt P25100)
T1 construct: expressed in transfected cells; host or cells: HEK293
T1 sequence (P25100 1-572): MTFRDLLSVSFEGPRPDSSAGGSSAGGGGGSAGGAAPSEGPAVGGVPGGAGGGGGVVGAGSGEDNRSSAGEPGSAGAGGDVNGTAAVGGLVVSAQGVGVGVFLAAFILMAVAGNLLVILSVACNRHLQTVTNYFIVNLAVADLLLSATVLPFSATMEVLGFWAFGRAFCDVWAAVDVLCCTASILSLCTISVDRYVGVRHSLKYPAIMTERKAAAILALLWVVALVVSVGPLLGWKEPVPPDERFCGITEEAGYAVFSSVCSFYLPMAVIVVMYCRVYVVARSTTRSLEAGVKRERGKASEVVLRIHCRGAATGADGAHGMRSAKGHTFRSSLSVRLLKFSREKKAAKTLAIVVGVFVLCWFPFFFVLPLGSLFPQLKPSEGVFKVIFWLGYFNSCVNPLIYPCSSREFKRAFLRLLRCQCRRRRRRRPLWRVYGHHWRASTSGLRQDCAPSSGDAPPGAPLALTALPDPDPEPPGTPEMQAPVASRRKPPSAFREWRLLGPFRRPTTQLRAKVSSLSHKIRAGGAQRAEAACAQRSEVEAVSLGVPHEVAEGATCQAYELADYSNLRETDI
Assay: Adrenergic α1D [3H]-prazosin binding, HEK293 membranes
Conditions: inhibition of [3H]-prazosin binding (0.3 nM), read-out: α1 bind pIC50 (converted)
Protocol: Membranes were prepared from human embryonic kidney 293 (HEK293) cells expressing recombinant human α1D receptor. These were diluted in Assay Buffer (50 mM HEPES, 1 mM EDTA, pH 7.4) to provide a final concentration of membranes that gave a clear window between maximum and minimum specific binding.
Assays were performed in U-bottomed 96-well polypropylene plates. 10 μL [^3H]-prazosin (0.3 nM final concentration) and 10 μL of test compound (10× final concentration) were added to each test well. For each assay plate 8 replicates were obtained for [^3H]-prazosin binding in the presence of 10 μL vehicle (10% (v/v) DMSO in Assay Buffer; defining maximum binding) or 10 μL BMY7378 (10 μM final concentration; defining non-specific binding (NSB)). Membranes were then added to achieve a final volume of 100 μL. The plates were incubated for 2 hours at room temperature and then filtered onto PEI coated GF/B filter plates, pre-soaked for 1 hour in Assay Buffer, using a 96-well plate Tomtec cell harvester. Five washes with 250 μL wash buffer (50 mM HEPES, 1 mM EDTA, pH 7.4) were performed at 4° C. to remove unbound radioactivity. […] The plates were sealed (TopSeal A) and filter-bound radioactivity was measured with a scintillation counter (TopCount, Packard BioScience) using a 3-minute counting protocol.
Total specific binding (B0) was determined by subtracting the mean NSB from the mean maximum binding. […]

IC50: 0.1 µM
Compound: CCCCC[C@@H](C)N(CCNCCc1ccc(O)c2c1OCC(=O)N2)C(=O)CCNCCc1ccccc1 [Example 60, (R)—N-(Heptan-2-yl)-N-(2-(2-(5-hydroxy-3-oxo-3,4-dihydro-2H-benzo[b][1,4]oxazin-8-yl)ethylamino)ethyl)-3-(phenethylamino)propanamide bis(trifluoroacetate)]
